{"source": "patent US20170071976A1", "about": "“PHARMACEUTICAL SOLUTION HAVING ANTI-TUMOR EFFECT-ENHANCING AND TOXICITY-REDUCING EFFECT, AND PHARMACEUTICAL COMPOSITION COMPRISING SAME” (priority 2014, published 2017)", "key": {"[1]": {"test_system": "U2-OS osteosarcoma cell line", "assay": "MTT assay: in vitro inhibition of growth by deuterium oxide", "assay_type": "cell-based, human", "description": "Studies of in vitro inhibition of growth of human tumor cells by deuterium oxide, by the MTT (3-(4,5-dimethylthiazol-2-yl)-2,5-diphenyltetrazolium bromide) assay\n1. A bottle of cells that had been cultured for 3 to 4 days and were in the exponential phase was taken, a suitable amount of 0.25% Trypsin-EDTA solution was added thereto to detach the cells from the wall, and the cells were suspended in 10 ml RPMI 1640 medium containing 10% FBS. 2. The cells were counted on a hemocytometer, and generally viable cells should be not less than 97%. 3. The cell suspension was diluted with a complete medium to prepare a suspension containing 1×10^4 cells/ml. 4. To each well of a 12-well culture plate, 300 μl cell suspension was added. The addition of cells should be finished within 4 hours. The plate was placed in an incubator at 37° C. and 5% CO2 for 24 hours. 5. Powdery RPMI Medium 1640 (Gibco, USA, Cat#: 31800-022) was dissolved in deuterium oxide (provided by Cambridge Isotope Laboratories, Inc. (US)) to prepare a cell culture medium (unless particularly specified, all culture media used in the Examples hereinafter were prepared from powdery RPMI Medium 1640 and deuterium oxide) at a concentration shown in Table 1, which was added into the cell culture plate. 6. The cell culture plate was incubated for 3 days in an incubator at 37° C., 5% CO2 and 100% humidity. 7. A solution of 1 mg/ml MTT was prepared in a serum-free RPMI1640 medium, added to the plate at 200 μl/well, and incubated at 37° C. for 4 hours, to allow MTT to be reduced to formazan. 8. The supernatant was removed by pipetting, 200 μl DMSO was added to dissolve formazan, and the solution was well mixed on a platform shaker. 9. Absorbance of each well was measured on an ELISA reader with a detection wavelength of 570 nm and a reference wavelength of 450 nm. 10. The assay was repeated one more time.\nCalculation of results: Inhibition of growth of tumor cells by deuterium oxide was calculated using tumor cells treated with sodium chloride physiological solution as a control group. Inhibition of cell growth was plotted against amounts of deuterium oxide to obtain a dose response curve, from which the half maximal inhibitory concentration (IC50) of deuterium oxide was derived.\nInhibition of tumor cell growth (%)=(1−OD test/OD control)×100%"}, "[2]": {"test_system": "xenograft tumors from human colon cancer HCT-116 cells", "assay": "HCT-116 xenograft in nude mice, intravenous deuterium oxide in combination with 5-fluorouracil", "assay_type": "in vivo, BALB/c nude mice", "settings": "for Inhibition (%): tumor weight", "description": "Ltd. Cell lines: human colon cancer cells HCT-116 were provided by NANJING […] BIOTECH. CO., LTD. […] Bone marrow nucleated cells were isolated by a routine method, DNA was extracted from the cells, the OD value was measured in a UV-260 spectrometer as a representative of the DNA content, and inhibition of DNA synthesis by the test samples was observed. The test used 7 groups in total, with 8 animals per group. […] Tumor volume (TV) was calculated by the following equation: […] From the measurements, relative tumor volume (RTV) was calculated by the following equation: RTV=Vt/V0 Relative tumor growth ratio T/C (%) was calculated by the following equation: Criteria of efficacy evaluation: […] T/C %≦40% and statistically P<0.05, efficacious. Inhibition of tumor growth (%) was calculated by the following equation: Criteria of efficacy evaluation: […] The mean value was expressed in X±SD. Inter-group analysis was statistically performed with t test. The results were statistically analyzed using SPSS (Statistical Package for the Social Science) 17.0."}, "[3]": {"test_system": "human colon cancer HCT-116 cells (a moderately drug resistant strain)", "assay": "MTT assay: deuterium oxide in combination with 5-FU", "assay_type": "cell-based", "settings": "read-out: Inhibition of cell growth (%) (5-FU alone)", "description": "In vitro inhibition of growth of human colon cancer HCT-116 cells (a moderately drug resistant strain) by deuterium oxide in combination with 5-fluorouracil (5-FU)\nMethod: 5-fluorouracil was diluted with the sodium chloride deuterium oxide solution according to the concentrations shown in Table 2 and added to a cell culture plate; the in vitro inhibition of tumor cell growth was measured by the MTT assay in the same manner as Example 14.\nThe assay was repeated one more time."}, "[4]": {"settings": "5-FU(H) 30 mg/kg × 11, tail vein"}, "[5]": {"settings": "5-FU(L) 12 mg/kg × 11, tail vein"}}, "note": "Where “and” joins values, the source holds several entries; their conditions need not be identical. Identical values can stand only once. Marks after values point to notes of the source that are not given here.", "data": [{"compound": "[2H]O[2H]", "note": "[Deuterium oxide]", "values": [{"measurement": "Inhibition of growth (%)", "setting": "[1]; deuterium oxide 1.2% (v/v)", "value": "−2.81", "unit": "%"}, {"measurement": "Inhibition of growth (%)", "setting": "[1]; deuterium oxide 2.5% (v/v)", "value": 4.20, "unit": "%"}, {"measurement": "Inhibition of growth (%)", "setting": "[1]; deuterium oxide 5% (v/v)", "value": "−1.64", "unit": "%"}, {"measurement": "Inhibition of growth (%)", "setting": "[1]; deuterium oxide 10% (v/v)", "value": "−8.55", "unit": "%"}, {"measurement": "Inhibition of growth (%)", "setting": "[1]; deuterium oxide 20% (v/v)", "value": "−3.12", "unit": "%"}, {"measurement": "Inhibition of growth (%)", "setting": "[1]; deuterium oxide 30% (v/v)", "value": 11.99, "unit": "%"}, {"measurement": "Inhibition of growth (%)", "setting": "[1]; deuterium oxide 40% (v/v)", "value": 10.23, "unit": "%"}, {"measurement": "Inhibition of growth (%)", "setting": "[1]; deuterium oxide 50% (v/v)", "value": 18.21, "unit": "%"}, {"measurement": "Inhibition of growth (%)", "setting": "[1]; deuterium oxide 60% (v/v)", "value": 23.43, "unit": "%"}, {"measurement": "Inhibition of growth (%)", "setting": "[1]; deuterium oxide 70% (v/v)", "value": 29.64, "unit": "%"}, {"measurement": "Inhibition of growth (%)", "setting": "[1]; deuterium oxide 80% (v/v)", "value": 45.84, "unit": "%"}, {"measurement": "IC10", "setting": "[1]; expressed in v/v %", "value": 24.99, "unit": "%"}, {"measurement": "IC50", "setting": "[1]; expressed in v/v %", "value": 86.25, "unit": "%"}]}, {"compound": "O=c1[nH]cc(F)c(=O)[nH]1", "note": "[Example 5-FU, 5-fluorouracil]", "values": [{"measurement": "Body weight (g) End, given as change", "setting": "[2]; [4]", "value": -1.0, "unit": "g"}, {"measurement": "Body weight (g) Initial", "setting": "[2]; [4]", "value": "18.4 ± 0.5 g and 18.4 g"}, {"measurement": "Bone marrow DNA content (OD)", "setting": "[2]; [4]", "value": "0.836 ± 0.5023", "unit": "OD"}, {"measurement": "Tumor weight", "setting": "[2]; [4]", "value": "1.04 ± 0.13", "unit": "g"}, {"measurement": "Body weight (g) End, given as change", "setting": "[2]; [5]", "value": -0.6, "unit": "g"}, {"measurement": "Body weight (g) Initial", "setting": "[2]; [5]", "value": 18.0, "unit": "g"}, {"measurement": "Bone marrow DNA content (OD)", "setting": "[2]; [5]", "value": "0.897 ± 0.3783", "unit": "OD"}, {"measurement": "Tumor weight", "setting": "[2]; [5]", "value": "2.23 ± 0.2", "unit": "g"}, {"measurement": "tumor volume", "setting": "[2]; 21 days after administration, low-dose 5-FU alone", "value": "2.27±0.30", "unit": "cm^3"}, {"measurement": "body weight at end", "setting": "[2]; high-dose 5-FU positive control", "value": "17.4 ± 0.5", "unit": "g"}, {"measurement": "T/C (relative tumor growth ratio)", "setting": "[2]; low-dose 5-FU alone, vs negative control", "value": 80.91, "unit": "%"}, {"measurement": "Inhibition (%)", "setting": "[2]; [4]", "value": 64.38, "unit": "%*"}, {"measurement": "Inhibition (%)", "setting": "[2]; [5]", "value": "23.64% and 23.63%"}, {"measurement": "inhibition at 0.02 µg/mL", "setting": "[3]; 5-FU final conc. 0.02 μg/ml", "value": 2.18, "unit": "%"}, {"measurement": "inhibition at 0.05 µg/mL", "setting": "[3]; 5-FU final conc. 0.05 μg/ml", "value": 2.55, "unit": "%"}, {"measurement": "inhibition at 0.1 µg/mL", "setting": "[3]; 5-FU final conc. 0.10 μg/ml", "value": 2.3, "unit": "%"}, {"measurement": "inhibition at 0.2 µg/mL", "setting": "[3]; 5-FU final conc. 0.20 μg/ml", "value": 3.24, "unit": "%"}, {"measurement": "inhibition at 0.39 µg/mL", "setting": "[3]; 5-FU final conc. 0.39 μg/ml", "value": 6.98, "unit": "%"}, {"measurement": "inhibition at 0.78 µg/mL", "setting": "[3]; 5-FU final conc. 0.78 μg/ml", "value": 9.82, "unit": "%"}, {"measurement": "inhibition at 1.56 µg/mL", "setting": "[3]; 5-FU final conc. 1.56 μg/ml", "value": 11, "unit": "%"}, {"measurement": "inhibition at 3.13 µg/mL", "setting": "[3]; 5-FU final conc. 3.13 μg/ml", "value": 18.6, "unit": "%"}, {"measurement": "inhibition at 6.25 µg/mL", "setting": "[3]; 5-FU final conc. 6.25 μg/ml", "value": 26.5, "unit": "%"}, {"measurement": "inhibition at 12.5 µg/mL", "setting": "[3]; 5-FU final conc. 12.5 μg/ml", "value": 35.3, "unit": "%"}]}]}
